Assay results taken from the supplement of paper PMC10883282.
± gives the standard deviation of the averaged measurements.

Test system: HS729
Assay: relative viability vs DMSO control (72 h) (fraction); higher = more viable cells
In short: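 Sarcoma cell lines were grown in 384-well plates seeded toward 80–90% confluence and exposed 24 h later to serially diluted compound. After 72 h at 37 °C and 5% CO2, with 0.1% DMSO vehicle and a 5 µM positive control on the plates, ATPLite was read. Relative viability, given as percent growth averaged over up to triplicate wells, was rescaled so that 1 is full and 0 is none.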

Structure (SMILES) | relative viability (0.00017 µM) | relative viability (0.00051 µM) | relative viability (0.00152 µM) | relative viability (0.00457 µM) | relative viability (0.01372 µM) | relative viability (0.04115 µM) | relative viability (0.1235 µM) | relative viability (0.3704 µM) | relative viability (1.111 µM) | relative viability (3.333 µM) | relative viability (10 µM)
Cc1ccc(F)c(NC(=O)Nc2ccc(-c3cccc4[nH]nc(N)c34)cc2)c1 [Linifanib] | 1.02 ± 0.065 | 0.958 ± 0.072 | 0.937 ± 0.052 | 0.943 ± 0.077 | 0.958 ± 0.052 | 0.896 ± 0.033 | 0.83 ± 0.033 | 0.783 ± 0.018 | 0.7353 ± 0.0054 | 0.762 ± 0.049 | 0.689 ± 0.055
CNC(=O)c1ccc(-c2cnc3ncc(Cc4ccc5ncccc5c4)n3n2)cc1F [Capmatinib] | 0.949 ± 0.061 | 0.94 ± 0.025 | 0.945 ± 0.027 | 0.956 ± 0.053 | 0.935 ± 0.021 | 0.956 ± 0.023 | 0.949 ± 0.029 | 0.921 ± 0.054 | 0.924 ± 0.043 | 0.953 ± 0.087 | 0.906 ± 0.066
CN1CCC(COc2cnc(-c3cccc(Cn4nc(-c5cccc(C#N)c5)ccc4=O)c3)nc2)CC1 [Tepotinib] | 1.04 ± 0.054 | 1 ± 0.048 | 0.988 ± 0.034 | 0.983 ± 0.041 | 0.941 ± 0.057 | 0.928 ± 0.055 | 0.987 ± 0.027 | 0.894 ± 0.02 | 0.926 ± 0.038 | 0.831 ± 0.029 | 0.829 ± 0.035
N#CC[C@H](C1CCCC1)n1cc(-c2ncnc3[nH]ccc23)cn1 [Ruxolitinib] | 1.07 ± 0.028 | 1.07 ± 0.028 | 1.06 ± 0.028 | 1.05 ± 0.027 | 1.02 ± 0.068 | 1.06 ± 0.031 | 1.01 ± 0.031 | 0.989 ± 0.035 | 0.938 ± 0.086 | 0.894 ± 0.1 | 0.764 ± 0.041
CC(C)(C)c1cc(NC(=O)Nc2ccc(-c3cn4c(n3)sc3cc(OCCN5CCOCC5)ccc34)cc2)no1 [Quizartinib] | 1.03 ± 0.1 | 0.973 ± 0.047 | 1 ± 0.11 | 0.976 ± 0.12 | 1.01 ± 0.084 | 0.953 ± 0.062 | 1.01 ± 0.12 | 0.873 ± 0.069 | 0.894 ± 0.12 | 0.873 ± 0.061 | 0.929 ± 0.061
COc1c(OCCCN2CCOCC2)ccc2c1N=C(NC(=O)c1cnc(N)nc1)N1CCN=C21 [Copanlisib] | 1.05 ± 0.04 | 0.906 ± 0.03 | 0.919 ± 0.027 | 0.701 ± 0.12 | 0.688 ± 0.028 | 0.6016 ± 0.0023 | 0.483 ± 0.028 | 0.439 ± 0.045 | 0.324 ± 0.035 | 0.306 ± 0.022 | 0.255 ± 0.015
Cc1ccc(NC(=O)c2ccc(CN3CCN(C)CC3)cc2)cc1Nc1nc(-c2cccnc2)cs1 [Masitinib] | 1.06 ± 0.064 | 1.06 ± 0.043 | 0.984 ± 0.066 | 1.03 ± 0.085 | 1.03 ± 0.037 | 1.04 ± 0.063 | 0.969 ± 0.038 | 0.913 ± 0.04 | 0.851 ± 0.054 | 0.576 ± 0.018 | 0.139 ± 0.022
Cn1cc(-c2cc3c(N4CCN(c5ncc([C@@](C)(N)c6ccc(F)cc6)cn5)CC4)ncnn3c2)cn1 [Avapritinib] | 0.909 ± 0.046 | 0.949 ± 0.023 | 0.9313 ± 0.0083 | 0.916 ± 0.037 | 0.909 ± 0.025 | 0.899 ± 0.077 | 0.864 ± 0.093 | 0.822 ± 0.084 | 0.814 ± 0.11 | 0.819 ± 0.086 | 0.802 ± 0.13
O=C(Cc1ccc(-c2ccc(OCCN3CCOCC3)cc2)cn1)NCc1ccccc1 [KX2-391] | 1.09 ± 0.061 | 1.02 ± 0.096 | 0.943 ± 0.046 | 0.959 ± 0.069 | 0.912 ± 0.019 | 0.792 ± 0.064 | 0.623 ± 0.018 | 0.562 ± 0.024 | 0.521 ± 0.029 | 0.501 ± 0.048 | 0.475 ± 0.019
CO[C@H]1C[C@@H]2CC[C@@H](C)[C@@](O)(O2)C(=O)C(=O)N2CCCC[C@H]2C(=O)O[C@H]([C@H](C)C[C@@H]2CC[C@@H](OP(C)(C)=O)[C@H](OC)C2)CC(=O)[C@H](C)/C=C(\C)[C@@H](O)[C@@H](OC)C(=O)[C@H](C)C[C@H](C)/C=C/C=C/C=C/1C [Ridaforolimus] | 0.962 ± 0.012 | 1 ± 0.045 | 0.977 ± 0.048 | 0.907 ± 0.1 | 0.923 ± 0.054 | 0.944 ± 0.0096 | 0.916 ± 0.12 | 0.924 ± 0.096 | 0.86 ± 0.14 | 0.786 ± 0.065 | 0.763 ± 0.052
CCc1cc2c(cc1N1CCC(N3CCOCC3)CC1)C(C)(C)c1[nH]c3cc(C#N)ccc3c1C2=O [Alectinib] | 0.923 ± 0.021 | 0.962 ± 0.027 | 0.958 ± 0.035 | 0.938 ± 0.073 | 0.972 ± 0.047 | 0.987 ± 0.021 | 0.937 ± 0.029 | 0.941 ± 0.045 | 1 ± 0.058 | 0.933 ± 0.022 | 1.02 ± 0.024
C[C@@H](c1ccc2nccn2c1)n1nnc2ncc(-c3cnn(C)c3)nc21 [Volitinib] | 0.947 ± 0.029 | 0.978 ± 0.013 | 0.978 ± 0.031 | 1.02 ± 0.043 | 0.938 ± 0.021 | 0.952 ± 0.066 | 0.955 ± 0.061 | 1 ± 0.053 | 1 ± 0.08 | 0.97 ± 0.034 | 1.03 ± 0.042
CC1(C)CNc2cc(NC(=O)c3cccnc3NCc3ccncc3)ccc21 [Motesanib] | 0.999 ± 0.075 | 1.03 ± 0.077 | 1 ± 0.077 | 1 ± 0.043 | 0.992 ± 0.037 | 1.03 ± 0.064 | 0.955 ± 0.073 | 0.932 ± 0.046 | 0.872 ± 0.051 | 0.828 ± 0.019 | 0.779 ± 0.065
CN1CCN(c2ccc3nc(-c4c(N)c5c(F)cccc5[nH]c4=O)[nH]c3c2)CC1 [Dovitinib] | 1.09 ± 0.058 | 1.03 ± 0.036 | 1.09 ± 0.027 | 1.04 ± 0.061 | 1.05 ± 0.079 | 1 ± 0.026 | 0.968 ± 0.083 | 0.832 ± 0.059 | 0.62 ± 0.025 | 0.41 ± 0.066 | 0.264 ± 0.034
CNC(=O)c1cc(Oc2ccc(NC(=O)Nc3ccc(Cl)c(C(F)(F)F)c3)c(F)c2)ccn1 [Regorafenib] | 1.08 ± 0.027 | 1.07 ± 0.04 | 1.03 ± 0.048 | 1.02 ± 0.046 | 0.945 ± 0.093 | 0.9469 ± 0.0076 | 0.98 ± 0.069 | 0.845 ± 0.014 | 0.824 ± 0.039 | 0.809 ± 0.014 | 0.651 ± 0.014
Cc1nc(NC(=O)N2CCC[C@H]2C(N)=O)sc1-c1ccnc(C(C)(C)C(F)(F)F)c1 [Alpelisib] | 1 ± 0.028 | 0.935 ± 0.034 | 0.922 ± 0.087 | 0.884 ± 0.042 | 0.838 ± 0.026 | 0.785 ± 0.067 | 0.745 ± 0.06 | 0.68 ± 0.041 | 0.577 ± 0.024 | 0.536 ± 0.039 | 0.445 ± 0.0061
CCN1CCN(Cc2ccc(Nc3ncc(F)c(-c4cc(F)c5nc(C)n(C(C)C)c5c4)n3)nc2)CC1 [Abemaciclib] | 0.912 ± 0.041 | 0.923 ± 0.014 | 0.892 ± 0.057 | 0.862 ± 0.033 | 0.9097 ± 0.0087 | 0.865 ± 0.029 | 0.818 ± 0.029 | 0.854 ± 0.087 | 0.873 ± 0.025 | 0.886 ± 0.021 | 0.885 ± 0.011
CC[C@H](Nc1ncnc2[nH]cnc12)c1nc2cccc(F)c2c(=O)n1-c1ccccc1 [Idelalisib] | 1.07 ± 0.061 | 1.07 ± 0.073 | 1.03 ± 0.055 | 1.05 ± 0.023 | 1.01 ± 0.038 | 0.987 ± 0.018 | 0.947 ± 0.049 | 0.919 ± 0.035 | 0.905 ± 0.05 | 0.843 ± 0.036 | 0.704 ± 0.011
C=CC(=O)N1CCC[C@@H](n2nc(-c3ccc(Oc4ccccc4)cc3)c3c(N)ncnc32)C1 [Ibrutinib] | 1.04 ± 0.018 | 1.01 ± 0.051 | 0.942 ± 0.027 | 0.9505 ± 0.0054 | 0.972 ± 0.088 | 0.927 ± 0.063 | 0.907 ± 0.014 | 0.926 ± 0.03 | 0.94 ± 0.05 | 0.907 ± 0.068 | 0.762 ± 0.03
